Some test systems named below: T-47D breast; NCI/ADR-RES ovarian; U251 CNS; LOX IMVI melanoma; NCI-H23 lung; SNB-19 CNS; HT29 colon; SF-268 CNS; SK-OV-3 ovarian; NCI-H522 lung.
Assay in all cases: NCI-60 cell line screen, 48 h

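How tested: cells in 96-well plates exposed to compound for 48 hours at five concentrations. TGI marks complete inhibition of growth.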 Where only a bound is given, the exact number is not on record here.

Turning to `Cc1cc(OP2(=O)NCc3ccncc3O2)ccc1Cl` (stereo not drawn), the TGI in the assay on T-47D breast, with NCI/ADR-RES ovarian, with U251 CNS, with LOX IMVI melanoma, with NCI-H23 lung and with SNB-19 CNS was more than 100 µM in each case. Also, the TGI in the assay on HT29 colon was more than 100 µM.

For the compound `CC(=O)/C(=C/N1CC(=O)NC1=S)C(=O)Nc1ccccc1C`, the TGI in the assay on SF-268 CNS, with T-47D breast, in the assay on NCI/ADR-RES ovarian, in the assay with U251 CNS, in the assay with LOX IMVI melanoma and in the assay with NCI-H23 lung was more than 100 µM in each case. Further, the TGI in the assay on SNB-19 CNS, in the assay with SK-OV-3 ovarian and with HT29 colon was more than 100 µM throughout.

As for `Cc1cn(C(CO)OC(CO)CN(O)C2C3CC4CC(C3)CC2C4)c(=O)[nH]c1=O` (stereo not drawn), the TGI in the assay with SF-268 CNS, with T-47D breast, with U251 CNS, with NCI-H23 lung, in the assay with SNB-19 CNS and with SK-OV-3 ovarian was more than 100 µM each time. Also, the TGI in the assay on HT29 colon was more than 100 µM.

As for `Nc1nncc2n[nH]nc12`, the TGI in the assay with SF-268 CNS, in the assay on T-47D breast, with NCI/ADR-RES ovarian, in the assay with U251 CNS, with NCI-H23 lung and in the assay on SNB-19 CNS was more than 100 µM each time. In addition, the TGI in the assay with HT29 colon was more than 100 µM.

On to `N=C1c2ccccc2C(=O)c2c(NCCNCCO)ccc(O)c21`, for which the TGI worked out at 14.2 µM with SF-268 CNS; 18.9 µM with U251 CNS; 15.6 µM with LOX IMVI melanoma; 25.7 µM with NCI-H23 lung; 84.8 µM in the assay on SNB-19 CNS; 50.2 µM with SK-OV-3 ovarian. For the same compound, the TGI with NCI-H522 lung was 13.3 µM; in the assay on HT29 colon, more than 100 µM.

Take `O=C1C=CC(=O)c2c(O)c(NCCN3CCOCC3)c(Cl)c(O)c21`: the TGI in the assay on SF-268 CNS stood at 6.12 µM; with T-47D breast, 4.51 µM; with NCI/ADR-RES ovarian it was 4.88 µM; in the assay on U251 CNS it was 6.97 µM; in the assay with LOX IMVI melanoma, 2.85 µM; in the assay on SNB-19 CNS it was 3.23 µM. The values for the TGI in the assay on SK-OV-3 ovarian and in the assay with HT29 colon were more than 10 µM and 4.7 µM, respectively.

For `COC(=O)CC(C(C(=O)OCc1ccccc1)C(C)O)N1C(=O)OCC1c1ccccc1` (stereo not drawn), the TGI with SF-268 CNS, in the assay on U251 CNS, in the assay with LOX IMVI melanoma, in the assay with NCI-H23 lung, in the assay on SNB-19 CNS and in the assay on HT29 colon was more than 100 µM throughout.

In the case of `COC(=O)Cc1cccc2c(=O)c(S(=O)(=O)NC(=O)Nc3ccc(Cl)cc3)c(-c3ccccc3)oc12`, the TGI with SF-268 CNS, in the assay on NCI/ADR-RES ovarian, with U251 CNS, with LOX IMVI melanoma, in the assay on NCI-H23 lung and with SNB-19 CNS was more than 100 µM in each case. In addition, the TGI was more than 100 µM in the assay with SK-OV-3 ovarian, 38.6 µM in the assay on NCI-H522 lung and more than 100 µM with HT29 colon.

For `COc1ccc(CC2Cc3ccccc3CC(=O)N2)cc1OC` (stereo not drawn), the TGI in the assay on T-47D breast was 58.5 µM; in the assay with NCI/ADR-RES ovarian, more than 100 µM; with U251 CNS, more than 100 µM; in the assay with LOX IMVI melanoma, more than 100 µM; in the assay on NCI-H23 lung, more than 100 µM; in the assay on SNB-19 CNS it was more than 100 µM. The TGI in the assay with SK-OV-3 ovarian and in the assay on HT29 colon was more than 100 µM in each case.

As for `CC(C)(C)n1[nH]c(=O)n(C(C)(C)C)c1=O`, the TGI in the assay on SF-268 CNS, with T-47D breast, in the assay with U251 CNS, in the assay with LOX IMVI melanoma, in the assay with NCI-H23 lung and in the assay on SNB-19 CNS was more than 100 µM in each case. In addition, the TGI with SK-OV-3 ovarian was more than 100 µM.

On to `COc1ccc(C/C=C(\C)CCO)cc1`, for which the TGI in the assay with SF-268 CNS, in the assay with NCI/ADR-RES ovarian, in the assay on U251 CNS, in the assay with LOX IMVI melanoma, with NCI-H23 lung and in the assay on SNB-19 CNS was more than 100 µM in each case. Further, the TGI in the assay on SK-OV-3 ovarian, with NCI-H522 lung and in the assay with HT29 colon was more than 100 µM in each case.

Take `CS(=O)(=O)c1ccc(C(=O)O[C@@H]2C(=O)N3CC[C@H]4OC(O)[C@@H]2[C@H]43)cc1` (stereo partly drawn): the TGI in the assay on SF-268 CNS, with T-47D breast, with NCI/ADR-RES ovarian, with U251 CNS, in the assay with LOX IMVI melanoma and in the assay with NCI-H23 lung was more than 100 µM each time. Moreover, the TGI in the assay on SNB-19 CNS, with SK-OV-3 ovarian and with HT29 colon was more than 100 µM in each case.

As to `C=C(C)[C@@]12C[C@H](OC(=O)[C@H](O)[C@@H](NC(=O)c3ccccc3)c3ccccc3)C(C)=C1[C@@H](OC(C)=O)C(=O)[C@@]1(C)C([C@@H]2OC(=O)c2cc(F)cc(F)c2)C2(OC(C)=O)CO[C@@H]2C[C@@H]1O` (stereo partly drawn), the TGI was more than 7.16 µM with SF-268 CNS; more than 8.57 µM in the assay on T-47D breast; 6.63 µM with NCI/ADR-RES ovarian; more than 5.16 µM in the assay with U251 CNS; 2.21 µM in the assay with LOX IMVI melanoma; 3.14 µM in the assay on NCI-H23 lung. For the same compound, the TGI in the assay with SNB-19 CNS was more than 10 µM; in the assay on SK-OV-3 ovarian it was more than 10 µM; in the assay on HT29 colon, 1.4 µM.

For the compound `CC1=C(O)C(=O)C2C(=O)C1C(C)C2c1ccccc1` (stereo not drawn), the TGI with SF-268 CNS, in the assay on U251 CNS, in the assay on LOX IMVI melanoma, in the assay on NCI-H23 lung, with SNB-19 CNS and in the assay on SK-OV-3 ovarian was more than 100 µM each time. The TGI in the assay on NCI-H522 lung and in the assay on HT29 colon was more than 100 µM each time.

As for `O=C([O-])c1ccccc1Nc1ccccc1C(=O)[O-].[OH3+].[Zn+2]`, the TGI in the assay with SF-268 CNS came out at 40.2 µM; with U251 CNS it was 33 µM; with LOX IMVI melanoma, 44.9 µM; in the assay with NCI-H23 lung it was 28.9 µM; in the assay with SNB-19 CNS it was 30.7 µM; in the assay on SK-OV-3 ovarian it was 39 µM. Also, the TGI in the assay on NCI-H522 lung is 18.2 µM; in the assay on HT29 colon, more than 100 µM.

In the case of `Cc1cn(CCCCOC(=O)NC(CCCN=C(N)N)C(=O)O)c(=O)[nH]c1=O` (stereo not drawn), the TGI in the assay on SF-268 CNS, in the assay on T-47D breast, with NCI/ADR-RES ovarian, in the assay on U251 CNS, in the assay on LOX IMVI melanoma and in the assay with NCI-H23 lung was more than 100 µM in each case. Further, the TGI in the assay with SNB-19 CNS, in the assay on SK-OV-3 ovarian and with HT29 colon was more than 100 µM in each case.
